Our source for the Km values is article PMC6784447, “Evaluation of 3-Chlorobenzoate 1,2-Dioxygenase Inhibition by 2- and 4-Chlorobenzoate with a Cell-Based Technique” (Biosensors, 2019).

The test system of the assay is T1, 3-chlorobenzoate-1,2-dioxygenase (3-CBDO; 3-CBA-1,2-DO).
T1 construct: native enzyme, not purified, in intact freshly harvested 3-CBA-grown cells; component and subunit make-up printed only for the analogous benzoate 1,2-dioxygenase; with 3-chlorobenzoate 1,2-dioxygenase subunit beta (benzoate 1,2-dioxygenase small subunit-like); 3-chlorobenzoate 1,2-dioxygenase reductase component (benzoate 1,2-dioxygenase reductase-like)
Put plainly: respiration of intact cells, Clark oxygen electrode reactor biosensor; Hill fit. Format: cell-based, Rhodococcus opacus. The following applies: 50 mM Tris-HCl pH 8.0, air-saturated, room temperature; intact 3-CBA-grown cells (indirect estimate of enzyme activity); Hill n 2.36; no added inhibitor; read-out: S0.5.

Take `O=C(O)c1cccc(Cl)c1` [3-chlorobenzoate]: the Km is 45.3 ± 6.3 µM.
